Columns and labels:
[1] = tested on: collagen-induced arthritis in rats; assay: Example 9: Rat collagen-induced arthritis (CIA) model, clinical score; assay type: in vivo, rat (Lewis); design: key: qualitative severity score summed over four paws, maximum 16
Protocol: Vehicle: 10 mM phosphate pH 6+0.8% NaCl+0.05% polysorbate 20
Peptide: Peptide 100 is formulated in vehicle at 50 nmol/mL. Dosing volume was individually adjusted according to the body weight of each animal to reach the target dose of peptide 100 of 100 nmol/kg.
The animal care facility employed is accredited by AAALAC. Female Lewis rats, weighing 180±20 g at delivery were used for this study. Following arrival in the animal facility, all animals were subjected to a general health evaluation. An acclimation period of 1 day was allowed before the beginning of the study.
Animals were grouped into 9 each based on their body weight. All animals were challenged with porcine type-II collagen with incomplete Freund's adjuvant on day 1 (0.2 mg/0.2 mL/rat, subcutaneously at the base of the tail) and boosted on day 7 (0.1 mg/0.1 mL/rat, s.c.). In the study dexamethasone given daily PO at 0.3 mg/kg was used as a positive control.
From day 12 to day 30, peptide 100 was administered as a single bolus either daily (QD), every third day (Q3D) or every fifth day (Q5D) subcutaneously into the flank. […] The peptide and vehicle were dosed at a volume of 2 mL/kg. Dosing volume was individually adjusted according to the body weight of each animal to reach the target dose of formulation 1 of 100 nmol/kg.
Disease was assessed by using a qualitative severity score system (see below, maximum score of 16) on days 1, 7, 10, 12 (before dosing), 13, 14, 15, 16, 17, 18, 19, 20, 21, 22, 24, 26 and 28 before peptide treatment and one hour after treatment on day 30.
The disease severity score is based on the following:
The ability of Kv1.3 inhibitor treatment to reduce chronic inflammation in arthritis was investigated by comparing the response in rats (n=9 animals/group) treated with vehicle to that of rats treated with peptide 100 daily, every third day or every fifth day. The severity of arthritis was determined by summation of the disease score on all four paws from day 12 to day 30 for each animal.

[2] = tested on: T-cell activation in rat whole blood; assay: Example 4: IL-17A release in thapsigargin stimulated rat whole blood; assay type: cell-based, rat (Lewis or Sprague-Dawley); details: 24 Hr, at least 2 replicates, unit inferred, read-out: IC50 (inhibition of IL-17A release)
Method in brief: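 Heparinised whole blood from naïve Lewis or Sprague-Dawley rats preincubated ≥5 min at RT with peptide, then stimulated with thapsigargin (40 μM stock added as one quarter of well volume) for 24 h at 37 °C. Supernatant IL-17A measured by ELISA; IC50 from curves normalised to stimulated and unstimulated controls, ≥2 replicates.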

## H-P[Nle]E[Nle]RC(1)SASVEC(2)KQKC(3)LAAIGSIFGKC(1)[Nle]NKKC(2)KC(3)YPR-OH [Peptide 100]
[1]; 100 nmol/kg s.c. daily, every third day or every fifth day, day 12 to day 30, in words
  Mean clinical score: reduction of the mean clinical score with all dosing regimens
[1]; Q3D SC 100 nmol/kg, day 12
  Mean clinical score: 0.8
[1]; Q3D SC 100 nmol/kg, day 13
  Mean clinical score: 2.0
[1]; Q3D SC 100 nmol/kg, day 14
  Mean clinical score: 4.1
[1]; Q3D SC 100 nmol/kg, day 15
  Mean clinical score: 4.4
[1]; Q3D SC 100 nmol/kg, day 16
  Mean clinical score: 5.0
[1]; Q3D SC 100 nmol/kg, day 17
  Mean clinical score: 5.6
[1]; Q3D SC 100 nmol/kg, day 18
  Mean clinical score: 6.4
[1]; Q3D SC 100 nmol/kg, day 19
  Mean clinical score: 6.6
[1]; Q3D SC 100 nmol/kg, day 20
  Mean clinical score: 7.2
[1]; Q3D SC 100 nmol/kg, day 21
  Mean clinical score: 7.3
[1]; Q3D SC 100 nmol/kg, day 22
  Mean clinical score: 8.0
[1]; Q3D SC 100 nmol/kg, day 24
  Mean clinical score: 8.2
[1]; Q3D SC 100 nmol/kg, day 26
  Mean clinical score: 8.4
[1]; Q3D SC 100 nmol/kg, day 28
  Mean clinical score: 9.0
[1]; Q3D SC 100 nmol/kg, day 30
  Mean clinical score: 10.0
[1]; Q5D SC 100 nmol/kg, day 12
  Mean clinical score: 2.4
[1]; Q5D SC 100 nmol/kg, day 13
  Mean clinical score: 3.3
[1]; Q5D SC 100 nmol/kg, day 14
  Mean clinical score: 4.6
[1]; Q5D SC 100 nmol/kg, day 15
  Mean clinical score: 4.9
[1]; Q5D SC 100 nmol/kg, day 16
  Mean clinical score: 5.4
[1]; Q5D SC 100 nmol/kg, day 17
  Mean clinical score: 5.8
[1]; Q5D SC 100 nmol/kg, day 18
  Mean clinical score: 6.2
[1]; Q5D SC 100 nmol/kg, day 19
  Mean clinical score: 6.4
[1]; Q5D SC 100 nmol/kg, day 20
  Mean clinical score: 6.9
[1]; Q5D SC 100 nmol/kg, day 21
  Mean clinical score: 7.1
[1]; Q5D SC 100 nmol/kg, day 22
  Mean clinical score: 7.6
[1]; Q5D SC 100 nmol/kg, day 24
  Mean clinical score: 8.2
[1]; Q5D SC 100 nmol/kg, day 26
  Mean clinical score: 8.5
[1]; Q5D SC 100 nmol/kg, day 28
  Mean clinical score: 9.0
[1]; Q5D SC 100 nmol/kg, day 30
  Mean clinical score: 9.4
[1]; QD SC 100 nmol/kg, day 12
  Mean clinical score: 0.8
[1]; QD SC 100 nmol/kg, day 13
  Mean clinical score: 2.1
[1]; QD SC 100 nmol/kg, day 14
  Mean clinical score: 4.3
[1]; QD SC 100 nmol/kg, day 15
  Mean clinical score: 4.7
[1]; QD SC 100 nmol/kg, day 16
  Mean clinical score: 5.8
[1]; QD SC 100 nmol/kg, day 17
  Mean clinical score: 6.0
[1]; QD SC 100 nmol/kg, day 18
  Mean clinical score: 6.6
[1]; QD SC 100 nmol/kg, day 19
  Mean clinical score: 6.7
[1]; QD SC 100 nmol/kg, day 20
  Mean clinical score: 7.0
[1]; QD SC 100 nmol/kg, day 21
  Mean clinical score: 7.1
[1]; QD SC 100 nmol/kg, day 22
  Mean clinical score: 7.1
[1]; QD SC 100 nmol/kg, day 24
  Mean clinical score: 6.9
[1]; QD SC 100 nmol/kg, day 26
  Mean clinical score: 7.0
[1]; QD SC 100 nmol/kg, day 28
  Mean clinical score: 7.8
[1]; QD SC 100 nmol/kg, day 30
  Mean clinical score: 8.4
[2]
  IC50: 0.43 nM

— patent US20260325605A1, “INHIBITORS” (Zealand Pharma A/S, priority 2022, published 2026)
